The numbers were not newly measured in the CATMoS acute toxicity set (Mansouri et al. 2021), which cites them from elsewhere.

SMILES strings stand for the structures.

This series in a line: rat acute oral toxicity. The following applies: in vivo.
As for `Nc1c(/N=N/c2ccc(-c3ccc(/N=N/c4cc(S(=O)(=O)O)c5ccccc5c4N)cc3)cc2)cc(S(=O)(=O)O)c2ccccc12`, the 50% lethal dose (LD50) was 15200 mg/kg.

Regarding `c1ccc(C2CC(N3CCCC3)CC(c3ccccc3)C2c2ccccn2)cc1` (centres undefined), the 50% lethal dose (LD50) was 479 mg/kg.

As to `C1OCC(COCC2COCO2)O1` (centres undefined), the LD50 is 5150 mg/kg. As to `CN(C)CCC#N`, the LD50 was 2600 mg/kg. With `Cn1c(=O)c2c(nc(Cc3ccc(N)cc3)n2C)n(C)c1=O`, the LD50 was 383 mg/kg. `O=S(=O)(Cl)c1ccc(Cl)cc1`: the LD50 was 4250 mg/kg. Consider `CCCCOC(CBr)c1ccc(C2CCCC2)cc1` (centres undefined), for which the LD50 is 250 mg/kg. `Nc1c([N+](=O)[O-])cc(Cl)cc1[N+](=O)[O-]`: the median lethal dose (LD50) is 400 mg/kg. On to `O=C(O)CSc1cccc2cccc(CCl)c12`, for which the 50% lethal dose (LD50) was 2500 mg/kg. `CCOC(C1=NCC(C)(C)CN1)c1ccc(OC)c(F)c1` (centres undefined): the LD50 is 320 mg/kg.

`O=S(=O)(Oc1ccc(Cl)cc1)c1ccccc1`: the median lethal dose (LD50) was 1350 mg/kg. Regarding `COCCc1ccc(OCC(O)CNC(C)C)cc1` (centres undefined), the 50% lethal dose (LD50) was 3470 mg/kg. As to `CC(C)OP(=O)(OC(C)C)SCc1ccccc1`, the LD50 is 550 mg/kg. Consider `CC(=O)OCCCl`, for which the LD50 was 10 mg/kg. For the compound `CCO[Si](CCCS)(OCC)OCC`, the LD50 was 6110 mg/kg. For `COc1ccccc1OC`, the LD50 is 890 mg/kg. With `Ic1nc(I)c(I)[nH]1`, the median lethal dose (LD50) was 278 mg/kg.

On to `COc1ccc2c(c1)CCC(c1ccccc1)=C2c1ccc(OCCN2CCCC2)cc1`, for which the median lethal dose (LD50) is 302 mg/kg. For the compound `CCN(CC)CCNc1c2ccccc2nc2cccc([N+](=O)[O-])c12`, the median lethal dose (LD50) is 42.2 mg/kg. For the compound `Cc1c[nH]cn1`, the LD50 was 751 mg/kg. On to `NCC1CCC(CN)CC1` (centres undefined), for which the LD50 is 530 mg/kg. On to `CC(C)NNC(=O)COc1ccc(Cl)cc1`, for which the 50% lethal dose (LD50) is 550 mg/kg.

Turning to `O=C1c2cccc(S(=O)(=O)O)c2C(=O)c2cccc(S(=O)(=O)O)c21`, the 50% lethal dose (LD50) is 2360 mg/kg.

Turning to `CC(C)NNC(=O)c1ccncc1`, the 50% lethal dose (LD50) is 365 mg/kg. Regarding `SCCS`, the LD50 is 120 mg/kg. For `CCCCCCOC(=O)C(O)c1ccccc1` (centres undefined), the LD50 was 17000 mg/kg. For `Cc1ncc2cscc2c1O`, the LD50 is 1500 mg/kg. Consider `O=NN1CCOCC1`, for which the LD50 is 282 mg/kg. On to `COc1cccc([C@]2(O)CCCC[C@H]2CN(C)C)c1` (single isomer, unassigned), for which the 50% lethal dose (LD50) was 228 mg/kg. In the case of `CCCSC(=O)Cl`, the 50% lethal dose (LD50) is 1130 mg/kg. `Cc1onc(-c2c(Cl)cccc2Cl)c1C(=O)N[C@@H]1C(=O)N2[C@@H]1SC(C)(C)[C@@H]2C(=O)O`: the 50% lethal dose (LD50) is 3580 mg/kg. With `CC(C)(C)N=NC(C)(C)O`, the LD50 is 329 mg/kg.

For the compound `CN1CCCN=C1COC(=O)C(O)(c1ccccc1)C1CCCCC1` (centres undefined), the LD50 is 1370 mg/kg. With `Cc1ncc([N+](=O)[O-])n1CC(O)CCl` (centres undefined), the median lethal dose (LD50) was 1780 mg/kg.

On to `CC1(COCC2(C)CO2)CO1` (centres undefined), for which the LD50 is 1680 mg/kg. For the compound `CCOP(=O)(O)CCCl`, the median lethal dose (LD50) was 1250 mg/kg.

With `OCC(F)(F)C(F)(F)C(F)(F)C(F)(F)C(F)(F)C(F)(F)C(F)(F)C(F)F`, the LD50 was 4400 mg/kg. As for `COP(=O)(OC)Oc1ccc([N+](=O)[O-])c(Cl)c1`, the 50% lethal dose (LD50) was 10 mg/kg. Turning to `CCCCC1C(=O)N(c2ccccc2)N(c2ccc(O)cc2)C1=O` (centres undefined), the LD50 is 329 mg/kg. As for `CN(C)C(=O)c1nc(CNC(=O)CN)n(-c2ccc(Cl)cc2C(=O)c2ccccc2Cl)n1`, the median lethal dose (LD50) is 680 mg/kg.

Consider `CN(C)N=Nc1ccc(F)cc1`, for which the median lethal dose (LD50) was 326 mg/kg. With `CCOP(=S)(OCC)SC(=CC(=O)OC)C(=O)OC`, the LD50 is 80 mg/kg. For `CS(=O)(=O)OC[C@@H]1O[C@H]1[C@@H]1O[C@H]1COS(C)(=O)=O`, the median lethal dose (LD50) was 225 mg/kg.

`Nc1ncnc2nccnc12`: the LD50 is 745 mg/kg. Turning to `CNC(=O)c1cc(Oc2ccc(N)c(F)c2)ccn1`, the LD50 is 500 mg/kg. As to `Cc1ccc2[nH]c(C(F)(F)F)nc2c1Br`, the LD50 is 64 mg/kg. `COC(=O)C1=C(C)NC(C)=C(C(=O)OC)C1c1ccccc1[N+](=O)[O-]`: the 50% lethal dose (LD50) is 1020 mg/kg. For `Cc1ccnc(SCCC(F)=C(F)F)n1`, the LD50 was 844 mg/kg. For the compound `CCN(CC(F)(F)F)N=O`, the 50% lethal dose (LD50) is 960 mg/kg.

For `Cc1cc(CC(=O)O)n(C)c1C(=O)c1ccc(Cl)cc1`, the LD50 was 27 mg/kg. Take `CCOc1cc(OP(=S)(OC)OC)nc(CC)n1`: the median lethal dose (LD50) was 1800 mg/kg. As to `O=C1NC(=O)C(c2ccccc2)(c2ccccc2)N1`, the median lethal dose (LD50) was 1530 mg/kg. On to `COCOC`, for which the LD50 was 6420 mg/kg. As to `Nc1nc2cc(I)ccc2o1`, the LD50 is 1000 mg/kg. In the case of `CN(C)C1CCCCC1`, the median lethal dose (LD50) was 348 mg/kg. Take `COc1ccc(OC)cc1`: the LD50 was 3600 mg/kg. Turning to `CC(C)CC(O)CC(CC(C)C)CC(C)C` (centres undefined), the 50% lethal dose (LD50) was 16300 mg/kg. `CCN(Cc1ccc(Cl)nc1)/C(=C/[N+](=O)[O-])NC`: the median lethal dose (LD50) was 1580 mg/kg.

As for `Nc1cc(Cl)ccc1Cl`, the LD50 was 1600 mg/kg.

In the case of `C=CC(C)(O)CCCCC` (centres undefined), the median lethal dose (LD50) was 1800 mg/kg. `O=C(CN1CC1)NCCCCCCCCNC(=O)CN1CC1`: the LD50 is 225 mg/kg. Turning to `O=Cc1ccccc1-c1ccccc1C=O`, the median lethal dose (LD50) is 2830 mg/kg. `C=CCc1ccc(O)c(OC)c1`: the 50% lethal dose (LD50) is 1930 mg/kg. Turning to `CCN(CC)C(=O)c1ccccc1O`, the median lethal dose (LD50) was 580 mg/kg.

For orientation: LD50 means the dose expected to kill half of the subjects tested.
